Paper PMC12707346, “Discovery and validation of small molecule stabilizers of mutant triose phosphate isomerase (TPI) as potential lead candidates for TPI deficiency” (SLAS discovery : advancing life sciences R & D, 2025)
“Also recorded” adds a separate entry of the source. Like-named read-outs stand apart in the source and are kept apart here.

Assays:
[1] = Tissue distribution study in mice, 20 mg/kg i.p.; assay type: in vivo, C57BL/6 J mice; settings: mouse; for concentration at 0.5 h / concentration at 1 h / concentration at 2 h / concentration at 4 h / concentration at 8 h / Kp at 1 h / Kp at 2 h / Kp at 4 h / Kp at 8 h / Kp at 0.5 h: male, IP 20 mg/kg; for concentration at 0.5 h / concentration at 1 h / concentration at 2 h / concentration at 4 h / concentration at 8 h: ip; for Kp at 1 h / Kp at 2 h / Kp at 4 h / Kp at 8 h / Kp at 0.5 h: read-out: Mean Tissue/ Plasma Conc Ratio
Method: Male C57BL/6 J (Jackson Laboratories) wild type mice (age: 40–60 days) weighing 25–30 g, were used for the tissue distribution study. Mice were randomly assigned in two groups: blank (n = 1) and treatment. The treatment group received 20 mg/kg compound 424 intraperitoneally (n = 15; 3 animals per time point i.e., 0.5, 1, 2, 4, and 8 h). Molport 002–877–424 was formulated in a vehicle consisting of 20 % DMSO, 50 % PEG300, and 30 % sterile water. At each time point animals were euthanized via isoflurane overdose. Blood was collected in ETDA-coated tubes at each time points and centrifuged at 15,000 x g for 5 min. The separated plasma was stored at −80 °C. Following blood collection, liver, kidney, skeletal muscle and brain were isolated, rinsed in normal saline and approximately 100 mg of tissues were snap-frozen and stored at −80 °C. All plasma and tissue samples were shipped on dry ice to Touchstone Biosciences for further analysis. Sample preparation and analysis was performed at Touchstone Biosciences exactly as described in [20].

[2] = Mouse pharmacokinetics, 10 mg/kg i.p.; assay type: in vivo, CD-1 mice; settings: CD-1, plasma, ip, 10 mg/kg intraperitoneal
Method: Mouse pharmacokinetics (PK) Mouse PK studies were performed exactly as described in [18-20] (except that Molport 002–877–424 was the test compound at 10 mg/kg i.p.) by Touchstone Biosciences (Ply-mouth Meeting, PA), following the National Research Council guide for the care and use of laboratory animals to ensure proper care, use, and human treatment of the animals used in the study, adhering to generally accepted procedures for animal housing, dosing and blood sampling, and following AVMA guidelines for euthanasia. All procedures were approved by an institutional review panel.
Plasma concentrations were measured as described to determine a concentration vs. time profile. The area under the plasma concentration vs time curve (AUC) was calculated using the linear trapezoidal method. Fitting of the data to obtain pharmacokinetic parameters was carried out using non-compartmental analysis. Key PK parameters reported following i.p. administration are as follows: terminal half-life t1/2, initial plasma concentration C0, area under the plasma concentration vs. time curve AUC, volume of distribution at steady-state Vss, total plasma clearance CLp, and mean residence time MRT. All parameters are expressed for individual animals as well as mean, standard deviation, and coefficient of variation.

[3] = C57BL/6J, liver homogenate, 20 mg/kg, Liver, read-out: Mean Plasma or Tissue Homogenate Conc
[4] = C57BL/6J, liver homogenate, 20 mg/kg, Liver, read-out: Plasma or Tissue Homogenate Conc (individual animals)
[5] = C57BL/6J, liver, 20 mg/kg, Liver, read-out: Mean Tissue
[6] = C57BL/6J, muscle homogenate, 20 mg/kg, Muscle, read-out: Mean Plasma or Tissue Homogenate Conc
[7] = C57BL/6J, muscle homogenate, 20 mg/kg, Muscle, read-out: Plasma or Tissue Homogenate Conc (individual animals)
[8] = C57BL/6J, muscle, 20 mg/kg, Muscle, read-out: Mean Tissue
[9] = C57BL/6 J, plasma, 20 mg/kg, Plasma, read-out: Mean Plasma or Tissue Homogenate Conc
[10] = C57BL/6 J, plasma, 20 mg/kg, Plasma, read-out: Plasma or Tissue Homogenate Conc (individual animals)
[11] = C57BL/6J, muscle/plasma, Muscle

Compound: c1ccc(-c2nnc(-c3ccccn3)nc2NC2CCCCC2)cc1 [MolPort-002-877-424, C1CCC(CC1)Nc2nc(nnc2c3ccccc3)c4ccccn4]
- concentration at 0.5 h [1, 3]: 3600 ng/mL
- concentration at 0.5 h [1, 4]: 4280 ng/mL
- concentration at 1 h [1, 3]: 3030 ng/mL
- concentration at 1 h [1, 4]: 2450 ng/mL
- concentration at 2 h [1, 3]: 1570 ng/mL
- concentration at 2 h [1, 4]: 1370 ng/mL
- concentration at 4 h [1, 3]: 687 ng/mL
- concentration at 4 h [1, 4]: 539 ng/mL
- concentration at 8 h [1, 3]: 273 ng/mL
- concentration at 8 h [1, 4]: 205 ng/mL
- concentration at 0.5 h [1, 5]: 14400 ng/g
- concentration at 1 h [1, 5]: 12100 ng/g
- concentration at 2 h [1, 5]: 6270 ng/g
- concentration at 4 h [1, 5]: 2750 ng/g
- concentration at 8 h [1, 5]: 1090 ng/g
- concentration at 0.5 h ([1]; C57BL/6 J, muscle homogenate, 20 mg/kg, Muscle, read-out: Mean Plasma or Tissue Homogenate Conc): 516 ng/mL
- concentration at 0.5 h ([1]; C57BL/6 J, muscle homogenate, 20 mg/kg, Muscle, read-out: Plasma or Tissue Homogenate Conc (individual animals)): 443 ng/mL
- concentration at 1 h [1, 6]: 390 ng/mL
- concentration at 1 h [1, 7]: 336 ng/mL
- concentration at 2 h [1, 6]: 192 ng/mL
- concentration at 2 h [1, 7]: 152 ng/mL
- concentration at 4 h [1, 6]: 83.3 ng/mL
- concentration at 4 h [1, 7]: 63.6 ng/mL
- concentration at 8 h [1, 6]: 33.1 ng/mL
- concentration at 8 h [1, 7]: 26.1 ng/mL
- concentration at 0.5 h ([1]; C57BL/6 J, muscle, 20 mg/kg, Muscle, read-out: Mean Tissue): 2060 ng/g
- concentration at 1 h [1, 8]: 1560 ng/g
- concentration at 2 h [1, 8]: 768 ng/g
- concentration at 4 h [1, 8]: 333 ng/g
- concentration at 8 h [1, 8]: 132 ng/g
- concentration at 0.5 h [1, 9]: 10500 ng/mL
- concentration at 0.5 h [1, 10]: 12300 ng/mL
- concentration at 1 h [1, 9]: 9150 ng/mL
- concentration at 1 h [1, 10]: 7700 ng/mL
- concentration at 2 h [1, 9]: 4810 ng/mL
- concentration at 2 h [1, 10]: 5560 ng/mL
- concentration at 4 h [1, 9]: 2190 ng/mL
- concentration at 4 h [1, 10]: 1930 ng/mL
- concentration at 8 h [1, 9]: 1030 ng/mL
- concentration at 8 h [1, 10]: 868 ng/mL
- Kp at 1 h [1, 11]: 0.17
- Kp at 2 h [1, 11]: 0.16
- Kp at 4 h [1, 11]: 0.152
- Kp at 8 h [1, 11]: 0.128
- Kp at 0.5 h ([1]; C57BL/6 J, Brain): 0.134
- Kp at 1 h ([1]; C57BL/6 J, Brain): 0.12
- Kp at 2 h ([1]; C57BL/6 J, Brain): 0.113
- Kp at 4 h ([1]; C57BL/6 J, Brain): 0.105
- Kp at 8 h ([1]; C57BL/6 J, Brain): 0.086
- Kp at 1 h ([1]; C57BL/6 J, Kidney): 0.929
- Kp at 2 h ([1]; C57BL/6 J, Kidney): 0.846
- Kp at 4 h ([1]; C57BL/6 J, Kidney): 0.801
- Kp at 8 h ([1]; C57BL/6 J, Kidney): 0.758
- Kp at 0.5 h ([1]; C57BL/6 J, Muscle): 0.197
- levels in muscle ([1]; 20 mg/kg i.p.): 1 to 1.6 µM
- tissue distribution ([1]; 20 mg/kg i.p., 20 mg/kg): accumulated preferentially in liver and kidney; also recorded: moderately brain-penetrant
- Tmax [2]: ≤ 0.5 h
- Cmax ([2]; read-out: peak plasma concentration (Cmax)): 9910 ng/mL
- Cmax ([2]; read-out: peak plasma concentration (Cmax), molar): ~30 µM
- half-life ([2]; read-out: terminal half-life (t1/2) (converted)): 4.64 h
- AUC(0-inf) ([2]; read-out: total systemic exposure (AUCinf)): 66000 ng·h/mL
- concentration at 24 h ([2]; at 24 h, read-out: last measurable plasma concentration): 240 ng/mL
